Data set [1] in a line: log P (n-octanol/water partition coefficient) of aroma substances. It is filed as physicochemical. The text has this: [formula] • wherein: • C (n-octanol) is the concentration of the aroma substance in the n-octanol phase; and • C (water) is the concentration of the aroma substance in the water phase. The log K(n-octanol/water) is a dimensionless partition coefficient which indicates the ratio of the concentration of the aroma substance in a two-phase system of n-octanol and water. It is thus a model measure of the polarity or water/fat solubility of the aroma substance. Log P is a common physical parameter and is positive for lipophilic aroma substances and negative for hydrophilic aroma substances. The W parameter is therefore defined as follows: W=log10(SWF)

Data set [2] is described as follows: Odour threshold concentration in water. How it is done: The OAV value is defined as a measure of the significance of a specific component in the odour of a sample, for example, a foodstuff. The OAV value is calculated by dividing the concentration of a specific substance in the food (mg/kg) by the concentration threshold value of this substance in the food (mg/kg). If the OAV>1, the concentration of the substance exceeds the odour threshold concentration and the substance then makes a sensorial contribution to the overall profile.
The sensory recovery coefficient (SWF) of an aroma substance is composed of the log P of the aroma substance and the odour threshold concentration of the aroma substance (mg/kg in water) and is defined as follows: […]

Each structure is given as a SMILES string. Where two headings read alike, the source gives them in different places.

As for `CC(=O)C(C)=O` [2,3-butanedione], the logP (as a rule, a log measure of how a compound divides between an organic and an aqueous phase) in data set [1] (read-out: logP) was -0.508. Further, the Threshold in data set [2] (odour threshold concentration) came out at 54 µg/kg in water.

With `CCC(=O)C(C)=O` [2,3-pentanedione], in data set [1] (read-out: logP), the logP came out at 0.159. Moreover, the Threshold in data set [2] (odour threshold concentration) turned out to be 5 µg/kg in water.

For `CCC(C)C=O` (stereo not drawn) [2-methylbutyraldehyde], the logP in data set [1] (read-out: logP) turned out to be 1.4. In data set [2] (odour threshold concentration), this molecule displayed a Threshold of 0.9 µg/kg in water.

Take `CC=O` [acetaldehyde]: the logP in data set [1] (read-out: logP) is -0.182. For the same molecule, the Threshold in data set [2] was found to be 63 µg/kg in water.

`CC(=O)O` [acetic acid] came in with a Threshold in data set [2] (odour threshold concentration) of 180000 mg/kg in water.

Molecule `CCCC(=O)O` [butyric acid] returned a Threshold in data set [2] (odour threshold concentration) of 1000 µg/kg in water.

Take `CC/C=C\CCO` [cis-3-hexenol]: the logP in data set [1] (read-out: logP) was determined as 1.44.

With `CCO` [ethanol], the Threshold in data set [2] (odour threshold concentration) is 52000 mg/kg in water.

For `CCOC(C)=O` [ethyl acetate], the Threshold in data set [2] (odour threshold concentration) turned out to be 3120 µg/kg in water.

Turning to `CCCC(=O)OCC` [ethyl butanoate], in data set [1] (read-out: logP), the logP stood at 1.49. The molecule further showed a Threshold in data set [2] (odour threshold concentration) of 1 µg/kg in water.

For the molecule `CCCCCC(=O)OCC` [ethyl hexanoate], the logP in data set [1] (read-out: logP) was 2.41. The Threshold in data set [2] (odour threshold concentration) is 5 µg/kg in water.

As to `CCCCC1CCC(=O)O1` (stereo not drawn) [gamma-octalactone], the logP in data set [1] stood at 2.0901. The Threshold in data set [2] (odour threshold concentration) worked out at 24 µg/kg in water.

In the case of `CC(C)=CCC/C(C)=C/C=O` [geranial], the logP in data set [1] (read-out: logP) worked out at 3.19. The molecule also registered a Threshold in data set [2] (odour threshold concentration) of 320 µg/kg in water.

As for `CCCCCC=O` [hexanal], the logP in data set [1] (read-out: logP) is 1.85. This molecule also gave a Threshold in data set [2] (odour threshold concentration) of 16 µg/kg in water.

In the case of `CCCCCC(=O)O` [hexanoic acid], the logP in data set [1] (read-out: logP) came to 1.81. This molecule registered a Threshold in data set [2] (odour threshold concentration) of 3940 µg/kg in water.

As to `CCCCCCO` [hexanol], in data set [2] (odour threshold concentration), the Threshold turned out to be 50 µg/kg in water.

For the molecule `C=CC(C)(O)CCC=C(C)C` (stereo not drawn) [linalool], the logP in data set [1] (read-out: logP) worked out at 2.74. The molecule further came in with a Threshold in data set [2] (odour threshold concentration) of 103 µg/kg in water.

With `CO` [methanol], the logP in data set [1] (read-out: logP) was -0.358. The Threshold in data set [2] (odour threshold concentration) came to 369828 mg/kg in water.

For the molecule `CCC=O` [propanal], the logP in data set [1] (read-out: logP) came to 0.484. This molecule came in with a Threshold in data set [2] (odour threshold concentration) of 170 µg/kg in water.

As to `CCCO` [propanol], the Threshold in data set [2] was found to be 5700 µg/kg in water.

Source of the values: US12268227B2, “Production of flavor concentrates by osmosis” (SYMRISE AG, priority 2017, dated 2025).
